Laboratory results published in ChEMBL document CHEMBL1201862, “PubChem BioAssay data set” (2004).
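Five concentrations, 48 hours, 96-well plates. GI50 marks 50% less growth.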 Activity calls are given as the source filed them. Rule as the data show it: active = GI50 up to about 1.1 µM and inactive = higher.

Key:
Assay in all cases: inhibition of tumour cell growth, NCI panel, 48 h
786-0 = system: 786-0
A498 = system: A498
A549 = system: A549
ACHN = system: ACHN
BT-549 = system: BT-549
CAKI-1 = system: CAKI-1
CCRF-CEM = system: CCRF-CEM
COLO 205 = system: COLO 205
DU-145 = system: DU-145
EKVX = system: EKVX
HCC 2998 = system: HCC 2998
HCT-116 = system: HCT-116
HCT-15 = system: HCT-15
HOP-62 = system: HOP-62
HOP-92 = system: HOP-92
HT-29 = system: HT-29
Hs-578T = system: Hs-578T
IGROV-1 = system: IGROV-1
K562 = system: K562
KM12 = system: KM12
LOX IMVI = system: LOX IMVI
M14 = system: M14
MCF7 = system: MCF7
MDA-MB-231 = system: MDA-MB-231
MDA-MB-435 = system: MDA-MB-435
MDA-N = system: MDA-N
MOLT-4 = system: MOLT-4
Malme-3M = system: Malme-3M
NCI-H226 = system: NCI-H226
NCI-H23 = system: NCI-H23
NCI-H460 = system: NCI-H460
NCI-H522 = system: NCI-H522
NCI/ADR-RES = system: NCI/ADR-RES
OVCAR-3 = system: OVCAR-3
OVCAR-4 = system: OVCAR-4
OVCAR-5 = system: OVCAR-5
OVCAR-8 = system: OVCAR-8
PC-3 = system: PC-3
RPMI-8226 = system: RPMI-8226
RXF 393 = system: RXF 393
SF-268 = system: SF-268
SF-295 = system: SF-295
SF-539 = system: SF-539
SK-MEL-28 = system: SK-MEL-28
SK-MEL-2 = system: SK-MEL-2
SK-MEL-5 = system: SK-MEL-5
SK-OV-3 = system: SK-OV-3
SN12C = system: SN12C
SNB-19 = system: SNB-19
SNB-75 = system: SNB-75
SR = system: SR
SW-620 = system: SW-620
T47D = system: T47D
TK-10 = system: TK-10
U-251 = system: U-251
UACC-257 = system: UACC-257
UACC-62 = system: UACC-62
UO-31 = system: UO-31
HL-60 = system: HL-60

Measured: GI50

COc1ccc2c(-c3ccc(OCCN(C)C)cc3)c(Oc3ccc(Cl)cc3)c(=O)oc2c1
inactive: 786-0 2.59 µM | A498 14 µM | A549 4.48 µM | ACHN 7.23 µM | BT-549 14.7 µM | CAKI-1 11.1 µM | CCRF-CEM 4.42 µM | COLO 205 2.23 µM | DU-145 13.7 µM | EKVX 11.5 µM | HCC 2998 2.83 µM | HCT-116 2.63 µM | HOP-62 4.21 µM | HOP-92 5.5 µM | HT-29 6.56 µM | Hs-578T 6.01 µM | IGROV-1 3.37 µM | K562 2.54 µM | KM12 3.66 µM | LOX IMVI 2.19 µM | M14 1.74 µM | MCF7 2.52 µM | MDA-MB-231 6.79 µM | MDA-MB-435 2.85 µM | MDA-N 2.06 µM | MOLT-4 2.13 µM | Malme-3M 1.74 µM | NCI-H226 23.9 µM | NCI-H23 14.5 µM | NCI-H460 5.58 µM | NCI-H522 4.07 µM | NCI/ADR-RES 9.16 µM | OVCAR-3 6.17 µM | OVCAR-4 20 µM | OVCAR-5 15.6 µM | OVCAR-8 8.36 µM | PC-3 4.98 µM | RPMI-8226 4.05 µM | RXF 393 4.18 µM | SF-268 7.76 µM | SF-295 2.12 µM | SF-539 3.74 µM | SK-MEL-28 1.82 µM | SK-MEL-2 5 µM | SK-MEL-5 1.64 µM | SK-OV-3 7.4 µM | SN12C 20.2 µM | SNB-19 8.02 µM | SNB-75 7.19 µM | SR 2 µM | SW-620 5.41 µM | T47D > 20.4 µM | TK-10 7.82 µM | U-251 3.4 µM | UACC-257 2.05 µM | UACC-62 2.75 µM | UO-31 3.28 µM
3.35 µM: HCT-15

O=C1C=Cc2c(Br)sc(Br)c21
inactive: 786-0 34.9 µM | A498 > 100 µM | A549 55.1 µM | ACHN 24.7 µM | BT-549 27.3 µM | CAKI-1 19.6 µM | CCRF-CEM 2.64 µM | COLO 205 34.2 µM | DU-145 43.8 µM | EKVX 26.1 µM | HCC 2998 15.2 µM | HCT-116 29.1 µM | HL-60 23.1 µM | HOP-62 29.8 µM | HOP-92 24.7 µM | HT-29 28.2 µM | Hs-578T 29.2 µM | IGROV-1 18.6 µM | K562 23 µM | KM12 37.4 µM | LOX IMVI 20.5 µM | M14 25.9 µM | MCF7 19.3 µM | MDA-MB-231 21.7 µM | MDA-MB-435 19.1 µM | MDA-N 30.1 µM | MOLT-4 13.5 µM | Malme-3M 23.1 µM | NCI-H23 26.7 µM | NCI-H460 32.3 µM | NCI-H522 26.1 µM | NCI/ADR-RES 36.1 µM | OVCAR-3 15.8 µM | OVCAR-5 35.6 µM | OVCAR-8 26.5 µM | PC-3 19.7 µM | RPMI-8226 10.3 µM | RXF 393 24.3 µM | SF-268 30.5 µM | SF-295 > 100 µM | SF-539 59.3 µM | SK-MEL-28 28.8 µM | SK-MEL-2 26.9 µM | SK-MEL-5 91.2 µM | SK-OV-3 88.1 µM | SN12C 39.8 µM | SNB-19 > 100 µM | SNB-75 90.4 µM | SR 24.7 µM | SW-620 18 µM | T47D 34 µM | TK-10 4.78 µM | U-251 18.5 µM | UACC-257 26.6 µM | UACC-62 23.7 µM | UO-31 17.7 µM
26.2 µM: HCT-15

N#CCOc1ccc(/C=C/C(=O)c2ccc(Cl)cc2)cc1
77.6 µM: HCT-15
inactive: 786-0 22.6 µM | A498 20.8 µM | A549 39.7 µM | ACHN 34.8 µM | BT-549 3.62 µM | CCRF-CEM 26.5 µM | DU-145 66.4 µM | EKVX 39.6 µM | HCC 2998 31.7 µM | HCT-116 6.65 µM | HL-60 28.5 µM | HOP-62 25.2 µM | HOP-92 32 µM | HT-29 50.6 µM | Hs-578T 18.2 µM | IGROV-1 22 µM | K562 26 µM | KM12 22.4 µM | LOX IMVI 15.6 µM | M14 37 µM | MCF7 11.4 µM | MDA-MB-231 25.4 µM | MDA-MB-435 28.8 µM | MDA-N 32.4 µM | MOLT-4 19.6 µM | Malme-3M 28 µM | NCI-H226 > 100 µM | NCI-H23 24.8 µM | NCI-H460 27.2 µM | NCI-H522 > 10 µM | NCI/ADR-RES 23.9 µM | OVCAR-3 31.8 µM | OVCAR-4 34.9 µM | OVCAR-5 > 100 µM | OVCAR-8 32.1 µM | PC-3 43.2 µM | RPMI-8226 23.1 µM | RXF 393 17.5 µM | SF-268 33.9 µM | SF-295 21.4 µM | SF-539 19.2 µM | SK-MEL-28 33.7 µM | SK-MEL-5 20.9 µM | SK-OV-3 18.4 µM | SN12C 39.8 µM | SNB-19 22.8 µM | SNB-75 19.5 µM | SR 37.5 µM | SW-620 22.1 µM | T47D 19.9 µM | TK-10 28.5 µM | U-251 25.8 µM | UACC-257 32 µM | UACC-62 19 µM | UO-31 32.8 µM

CCOC(=O)c1nc2cc(C(F)(F)F)ccc2nc1Nc1ccc(OC)cc1
inactive: 786-0 47.4 µM | A498 > 100 µM | A549 > 100 µM | ACHN 86.9 µM | BT-549 > 100 µM | CAKI-1 > 100 µM | COLO 205 47.4 µM | DU-145 > 100 µM | EKVX > 100 µM | HCC 2998 > 100 µM | HCT-116 46.1 µM | HL-60 > 100 µM | HOP-62 42.5 µM | HOP-92 36.6 µM | HT-29 > 100 µM | Hs-578T 54.1 µM | IGROV-1 > 100 µM | KM12 > 100 µM | LOX IMVI 41.5 µM | M14 > 100 µM | MCF7 > 100 µM | MDA-MB-231 61.7 µM | MDA-MB-435 > 100 µM | MDA-N > 100 µM | MOLT-4 > 100 µM | NCI-H226 > 100 µM | NCI-H23 > 100 µM | NCI-H522 > 100 µM | NCI/ADR-RES > 100 µM | OVCAR-3 > 100 µM | OVCAR-5 > 100 µM | OVCAR-8 > 100 µM | PC-3 > 100 µM | RPMI-8226 > 100 µM | RXF 393 56.1 µM | SF-268 > 100 µM | SF-295 81.3 µM | SF-539 > 100 µM | SK-MEL-28 > 100 µM | SK-MEL-2 > 100 µM | SK-MEL-5 > 100 µM | SN12C > 100 µM | SNB-19 54.3 µM | SNB-75 55.6 µM | SR > 100 µM | SW-620 > 100 µM | T47D 95.1 µM | TK-10 > 100 µM | UACC-257 > 100 µM | UACC-62 > 100 µM | UO-31 > 100 µM
> 100 µM: HCT-15

CCCC#CCOC(=O)c1cc([N+](=O)[O-])cc([N+](=O)[O-])c1
inactive: 786-0 > 100 µM | A498 > 100 µM | A549 > 100 µM | ACHN > 100 µM | BT-549 > 100 µM | CAKI-1 > 100 µM | CCRF-CEM > 100 µM | COLO 205 > 100 µM | DU-145 > 100 µM | EKVX > 100 µM | HCC 2998 > 100 µM | HCT-116 > 100 µM | HL-60 > 100 µM | HOP-62 > 100 µM | HOP-92 > 100 µM | HT-29 > 100 µM | Hs-578T > 100 µM | IGROV-1 > 100 µM | K562 > 100 µM | KM12 > 100 µM | LOX IMVI > 100 µM | M14 > 100 µM | MCF7 > 100 µM | MDA-MB-231 > 100 µM | MDA-MB-435 41.4 µM | MDA-N 47.3 µM | MOLT-4 > 100 µM | Malme-3M 19.9 µM | NCI-H23 > 100 µM | NCI-H460 > 100 µM | NCI-H522 43.4 µM | NCI/ADR-RES > 100 µM | OVCAR-3 > 100 µM | OVCAR-5 > 100 µM | OVCAR-8 > 100 µM | PC-3 > 100 µM | RPMI-8226 > 100 µM | SF-268 > 100 µM | SF-295 > 100 µM | SF-539 > 100 µM | SK-MEL-28 > 100 µM | SK-MEL-2 > 100 µM | SK-MEL-5 52 µM | SK-OV-3 > 100 µM | SN12C > 100 µM | SNB-19 > 100 µM | SNB-75 > 100 µM | SR > 100 µM | SW-620 > 100 µM | T47D > 100 µM | TK-10 > 100 µM | U-251 > 100 µM | UACC-257 > 100 µM | UACC-62 > 100 µM | UO-31 > 100 µM
> 100 µM: HCT-15
